Data on twelve molecules can be found in patent US20210380952A1, “Method to Produce Virus in Cultured Cells Supplemented With Alpha-Ketoglutarate” (THE TRUSTEES OF PRINCETON UNIVERSITY, priority 2012, published 2021).

Series [1] deals with AD169 strain of HCMV. In kind it is cell-based, human cytomegalovirus. The note with it: for HCMV yield, fold change relative to no treatment (NT): MRC5, 0.5 IU/cell, 96 h after infection. On the procedure:
Cells were infected with the AD169 strain of HCMV at a multiplicity of 0.5 infectious units/cell, and immediately following a 2-hour adsorption period, cells were fed with medium (Dulbecco's Modified Eagle Medium, DMEM) containing 10% fetal calf serum plus various fatty acids, cholesterol and carbonyl scavenging compound. At 96 hours post infection, infectious virus in the medium was assayed by fluorescent focus assay using antibody to the HCMV IE1 protein.
Briefly, About 90% confluent MRC5 human fibroblasts were infected with HCMV at a multiplicity of 0.5 IU/cell. Two hours after infection, medium was replaced with fresh medium containing 10% fetal calf serum and either of oleic acid (OA, up to about 100 μM), linoliec acid (LA, up to about 100 μM), a-linolenic acid (LLA, up to about 100 μM), eicosapentaenoic acid (EPA, up to about 75 μM), or docosahexaenoic acid (DHA, up to about 50 μM). The experiment was also performed in the presence of either aminoguanidine (AG, up to about 250 μM) or cholesterol (chol., up to about 13 μM). Virus production at 96 hours after infection was determined by fluorescent focus assay in MRC-5 cells and shown as a fold change relative to no treatment (NT) which was 5×10^5 infectious units. The fold-changes are the average of two independent infections.
Briefly, about 90% confluent MRC5 fibroblasts were infected with HCMV at a multiplicity of 0.5 IU/cell. Two hours after infection, medium was replaced with fresh medium containing 10% fetal calf serum and α-tocopherol (α-T) or aminoguanidine (AG) at indicated concentrations. Virus production at 96 h after infection was determined by fluorescent focus assay in which MRC-5 cells and shown as a fold change relative to no treatment (NT). The fold-changes are the average of two independent infections. Results are set out in FIG. 2.
MRC5 fibroblasts were infected with the AD169 strain of HCMV at a multiplicity of 0.5 infectious units/cell in glutamine/GlutaMAX-free DMEM containing 10% dialyzed FCS. The dialyzed serum was used to completely eliminate the glutamine in the culture medium. The cells received either 2 mM GlutaMAX, which served as a control, or 7 mM α-kg. At 96 hours post infection, infectious virus in the medium was assayed by fluorescent focus assay using antibody to the HCMV IE1 protein.

Series [2] concerns VZV. In words: Yield of cell-free VZV from infected MRC5 cells, plaque assay on ARPE-19 cells. In kind it is cell-based, varicella zoster virus. The note with it: for VZV yield, factor of increase: MOI 1:250, 72 h; for VZV yield relative to no treatment (NT): with 10 μM α-T, 6 h after infection, HSA and DHA 25 μM, AA 100 μM, MOI 1:100, 72 hours post infection.
The test system of series [3] is VZV. The description is as above. Conditions: for VZV yield relative to no treatment (NT): 25 μM fatty acid plus 10 μM αT, 6 h after infection, sonicated immediately; for VZV yield relative to no treatment (NT) / VZV yield, fold change relative to no treatment (NT): MOI 1:50, 72 h; for VZV yield, fold change relative to no treatment (NT): added 6 hpi. It counts as cell-based, varicella zoster virus. As for the experimental part: For this test, MRC5 cells (passage 20-25) were seeded at a density of 300.000 cell/100 mm culture dish and grown in 15 ml of DMEM containing 10% fetal calf serum plus 2 mM GlutaMAX (GIBCO®, GlutaMAX™) at 35° C. A lipid mixture (LM-1, 1 ml/liter medium, Sigma Aldrich #L5146) was added to the cells either at the time of seeding or 1 day after seeding. Three days later, the culture medium was replaced with 10 ml growth medium containing 50 mM sucrose as a stabilizer. The cells were further incubated for 3 days and growth medium was replaced with fresh medium containing no sucrose. After cells reached confluence, they were infected with VZV by adding infected cells (1 infected cell/50 uninfected cells; infected cells were from a preparation frozen in a solution of 10% DMSO plus 90% fetal calf serum and stored in liquid nitrogen). At the time of infection, the cultures were re-fed with DMEM containing 10% fetal calf serum plus 2 mM glutamax. Arachidonic acid (AA)+alpha-tocopherol (αT) or DHA+αT were added at the indicated times. 72 hours after infection, cells were washed twice with PBS, and incubated in 10 ml of PBS containing 50 mM ammonium chloride for 50 minutes at 4° C. The cells were harvested and frozen in PSGC buffer (Harper et al., Arch Virol 143:1163-70, 1998) at −80° C. Infectious virus was subsequently quantified by plaque assay of sonicated cells on ARPE-19 cells (American Type Culture Collection). Results are set out in FIG. 3.
Briefly, in these repeat experiments, MRC5 cells were infected with VZV at an MOI=1:50. AA, DHA, and αT were added to the cells at 6 hpi as indicated. 72 hours after infection, the cells were harvested into PSGC buffer and frozen at −80° C. for later processing. After thawing, the cells were sonicated and the yield of cell free VZV quantified by standard plaque assay on ARPE-19 cells. Fold change relative to no treatment (NT) is shown. […] The fold-changes are the average of two independent infections.
In brief, MRC5 cells were infected with VZV at an MOI=1:50. Lipid mixture 1(LM-1) was added to the cells immediately after cell seeding. At 6 hours after infection, up to about 100 μM AA or […] was added to cells together with up to about 10 μM αT. 72 hours after infection, the cells were harvested into PSGC buffer and either frozen at −80° C. and sonicated later for the release of virus (frozen cells) or immediately sonicated after harvesting and supernatants containing the cell-free VZV were frozen at −80° C. (frozen sup.) prior to titration. Cell-free VZV yield was quantified by plaque assay on APRE-19 cells. Fold change relative to no treatment (NT) is shown. The numbers above the bars indicate the amount of virus obtained per ml in the corresponding treatment. The results are set out in FIG. 5.
Briefly, MRC5 cells were infected with VZV at an MOI=1:50. Six hours after infection cells were treated with indicated combinations of lipids plus 10 μM αT. Hexacosanoic acid (HSA) and octacosanoic acid (OSA) were dissolved in 20 mg/ml α-cyclodextin (Sigma-Aldrich) in PBS by sonication and added to a solution of 10 mg/ml fatty acid-free BSA (Sigma-Aldrich) in PBS (1:1, v/v) to give a stock concentration of 10 mM for each fatty acid. HSA, OSA, and DHA were used at 25 μM, and AA was used at 25 μM. Two sets of fatty acid concentrations was used for combination treatments: DHA, AA, and HSA was either added at concentrations of 25 μM, 100 μM, and 25 μM (high), or 10 μM, 50 μM, and 10 μM (low), respectively. 72 hours after infection, the cells were harvested into PSGC buffer, sonicated immediately and the yield of cell free VZV quantified by plaque assay on ARPE-19 cells. Fold change relative to no treatment (NT) is shown. The fold-changes are the average of two independent infections.
Briefly, MRC5 cells were grown in DMEM containing 10% fetal calf serum, 2 mM GlutaMAX) at 35° C. as described in the text. […]

The test system of series [4] is MRC5 cells. In words: Cytotoxicity evident upon visual inspection of treated infected cells. It counts as cell-based, human. Conditions: 100 μM fatty acid; VZV-infected MRC5 cells.
[5] abbreviates: additive alone in medium from 2 h after infection, OA, LA, LLA up to about 100 μM, EPA 75 μM, DHA 50 μM, AG 250 μM, chol. 13 μM.
Where [6] appears, read: fatty acid together with aminoguanidine (up to about 250 μM).
Setting [7] is: 25 μM fatty acid, absence of αT.

Read-outs that look alike come from different tables or passages of the source.

For the molecule `Cc1c(C)c2c(c(C)c1O)CC[C@@](C)(CCC[C@H](C)CCC[C@H](C)CCCC(C)C)O2` [alpha-tocopherol], the “HCMV production relative to no treatment (NT)” value in series [1] (Example 2, FIG. 2, scavenging compound alone from 2 h after infection, MRC5, 96 h) is given as “enhances the production of HCMV”.
Turning to `CCCCC/C=C\C/C=C\CCCCCCCC(=O)O` [LA, linoleic acid], the “HCMV yield, fold change relative to no treatment (NT)” value in series [1] (setting [5]) was “had little effect on the yield”; in series [1] (setting [6]) it was “reduced”.
Turning to `COC(=O)CCC(=O)C(=O)OC` [α-kg, dimethyl-α-ketoglutarate], the “VZV replication / titers” value in series [2] (1 mM α-kg in the absence of GlutaMAX, MOI 1:100, 72 h) is “unable to support virus replication”; in series [2] (2.5 mM α-kg in the absence of GlutaMAX, MOI 1:100, 72 h) it was “unable to support virus replication”. Moreover, the “VZV yield, fold increase relative to GlutaMAX (NT; 2 mM)” value in series [2] (7 mM α-kg alone, glutamine/GlutaMAX-free medium, MOI 1:50, added 6 hpi, 72 h) was 3.4 fold. In addition, the “VZV replication, fold enhancement compared to the addition of 2 mM GlutaMAX” value in series [2] (7 mM α-kg in the absence of GlutaMAX, MOI 1:100, 72 h) is on record as 2.8 fold. For the same molecule, in series [2] (7 mM α-kg in the presence of 2 mM GlutaMAX, MOI 1:100, added 6 h, 72 h), the “VZV yield, fold increase” value is reported as “about 2.1 fold”. For the same molecule, the “Concentration required to optimally support the replication of VZV” value in series [2] (MRC5, MOI 1:100, 72 h) was greater than 2.5 mM. The “VZV yield, factor of increase” value is reported as roughly 9.7 in series [2] (glutamine-free medium supplemented with dialyzed serum (10% dialyzed FCS)) and roughly 3.7 fold in series [2] (glutamine/GlutaMAX-free medium containing normal serum (10% FCS)). In addition, in series [1] (7 mM α-kg replacing glutamine, glutamine/GlutaMAX-free DMEM, 10% dialyzed FCS, 0.5 infectious units/cell, 96 hours post infection), the “Production of cell-free HCMV, fold increase relative to 2 mM GlutaMAX control” value was 4.3 fold.
Regarding `CCCCCCCC/C=C\CCCCCCCC(=O)O` [OA, oleic acid], the “HCMV yield, fold change relative to no treatment (NT)” value in series [1] (setting [5]) is given as “reduced the yield of HCMV”; in series [1] (setting [6]), “reduced”. The “VZV production, factor of reduction” value in series [3] (100 μM) is recorded as 2. Besides, the “Cytotoxicity / cellular toxicity” value in series [4] is “without causing observable cellular toxicity”.
For `CC/C=C\C/C=C\C/C=C\CCCCCCCC(=O)O` [LLA, α-linolenic acid], the “HCMV yield, fold change relative to no treatment (NT)” value is “about 1.2 fold” in series [1] (setting [5]) and “reduced” in series [1] (setting [6]).
Regarding `CCCCCCCCCCCCCCCCCCCCCCCCCC(=O)O` [HSA, hexacosanoic acid], the “VZV yield relative to no treatment (NT)” value is recorded as “elevated the yield of VZV” in series [2] and “improved virus yields in comparison to no treatment” in series [3].
As to `CC(C)CCC[C@@H](C)[C@H]1CC[C@H]2[C@@H]3CC=C4C[C@@H](O)CC[C@]4(C)[C@H]3CC[C@]12C` [cholesterol], the “VZV yield, factor relative to no treatment” value in series [2] (13 μM cholesterol, MOI 1:100, 72 hr after infection) is on record as “increased the yield of VZV by a factor of about two”. For the same molecule, the “HCMV yield, fold change relative to no treatment (NT)” value in series [1] (setting [5]) is on record as “no effect on HCMV yield”. The “HCMV yield, effect on the enhancing effects of fatty acids” value in series [1] (cholesterol (up to about 13 μM) together with fatty acids, MRC5, 96 h after infection) is “did not improve, and in some cases inhibited”.
Take `CC/C=C\C/C=C\C/C=C\C/C=C\C/C=C\CCCC(=O)O` [EPA, eicosapentaenoic acid]: in series [1] (setting [5]), the “HCMV yield, fold change relative to no treatment (NT)” value was 2.5 fold.
Consider `CC/C=C\C/C=C\C/C=C\C/C=C\C/C=C\C/C=C\CCC(=O)O` [DHA, docosahexaenoic acid], for which the “HCMV yield, fold change relative to no treatment (NT)” value in series [1] (setting [5]) turned out to be 4.6 fold. Besides, the “VZV yield, fold change relative to no treatment (NT)” value in series [3] (setting [7]) was “about 1.5 fold”. For the same molecule, the “Cytotoxicity / cellular toxicity” value in series [4] is on record as “toxic in the absence or presence of αT”.
For the molecule `N=C(N)NN` [aminoguanidine], the “HCMV yield, fold change relative to no treatment (NT)” value in series [1] (setting [5]) is on record as “about 2.6 fold”.
Take `CCCCCCCCCCCCCCCCCCCCCCCCCCCC(=O)O` [OSA, octacosanoic acid]: in series [3], the “VZV yield relative to no treatment (NT)” value is recorded as “improved virus yields in comparison to no treatment”.
As for `CCCCC/C=C\C/C=C\C/C=C\C/C=C\CCCC(=O)O` [AA, arachidonic acid], the “VZV yield, fold change relative to no treatment (NT)” value is 5 fold in series [2] (100 μM fatty acid in the presence of αT, added 6 hpi, MOI 1:50, 72 h); “increased the virus yield” in series [3] (25 μM fatty acid in the presence of αT); “enhanced the yield of virus” in series [3] (setting [7]); “inhibited virus production” in series [3] (100 μM fatty acid, absence of αT). Also, the “VZV yield relative to no treatment (NT)” value in series [2] was “elevated the yield of VZV”.
